Source: article PMC8196787, “Design and Pharmacodynamics of Recombinant Fungus Defensin NZL with Improved Activity against Staphylococcus hyicus In Vitro and In Vivo” (International Journal of Molecular Sciences, 2021)
Values after ≈ are worked out from the molar mass of the structure shown. Values joined by “and” are separate entries in the source; they are usually repeats but may differ in a detail not shown here. Equal entries are not always repeated. Where two headings read alike, the source gives them in different places. Positions of bridges follow the written chain, without caps; N, C: chain ends. Residues, ends and D or L forms follow the SMILES beside them.

Assays:
[1] = test system: S. hyicus NCTC 10350; assay: Mouse peritonitis model, survival; assay type: in vivo; conditions: 7 days
Description: The mice (6 mice/group) were intraperitoneally infected with the exponential phase S. hyicus NCTC 10350 cells (1 × 10^9 CFU/mL, 1 mL) to establish a mouse peritonitis model. […] Survival of mice was recorded daily for 7 days.

[2] = test system: IL-6; assay: Mouse peritonitis model, serum cytokine ELISA; assay type: in vivo
Description: (§1) Likewise, mice (15 mice/group) were injected with the exponential phase S. hyicus NCTC 10350 cells (1 × 10^9 CFU/mL, 1 mL) and treated with 10 mg/kg peptides or 60 mg/kg CRO. After 2 and 24 h post-treatment, sera were collected to test the levels of cytokines using enzyme linked immunosorbent assay (ELISA) kit. To evaluate bacterial translocation, organs were harvest from mice at 24-h post-treatment for colony counting; then, organs were removed from mice at 5 d post-treatment and observed through a light microscope to assess organ injury. The uninfected mice, the treated mice with CRO or PBS were served as the blank control, positive and negative control, respectively.

[3] = test system: TNF-α; assay: Mouse peritonitis model, serum cytokine ELISA; assay type: in vivo
Description: as §1

[4] = test system: IL-1β; assay: Mouse peritonitis model, serum cytokine ELISA; assay type: in vivo
Description: as §1

[5] = test system: S. hyicus NCTC 10350; assay: Mouse peritonitis model, bacterial translocation; assay type: in vivo; conditions: 24 h post-treatment, mean, n = 5
Description: as §1

[6] = test system: S. hyicus ACCC 61734; assay: microbe, parasite or virus in culture; assay type: cell-based; conditions: for MIC: S. hyicus ACCC 61734 (clinical strain), microbroth dilution, MHB, 37 °C, 16–20 h, triplicate, read-out: MIC
Description: (§2) The microbroth dilution method was used to evaluate the MIC values of new derivative peptides. […] The MIC value was defined as the lowest concentration where no visible bacteria growth occurred after overnight incubation. CRO was used as the positive control. All assays were conducted in triplicate.

[7] = test system: S. aureus ATCC 25923; assay: microbe, parasite or virus in culture; assay type: cell-based; conditions: MHB, 37 °C, 16–20 h, triplicate
Description: as §2

[8] = test system: S. aureus ATCC 43300; assay: microbe, parasite or virus in culture; assay type: cell-based; conditions: read-out: MIC
Description: as §2

[9] = test system: S. hyicus NCTC 10350; assay: microbe, parasite or virus in culture; assay type: cell-based; conditions: MHB, 37 °C, 16–20 h, triplicate
Description: as §2

[10] = test system: S. hyicus NCTC 10350; assay: Time-killing curves; assay type: cell-based
Description: Time-kill curves were performed to assess the bactericidal rates of peptides against S. hyicus NCTC 10350 [25]. […] The samples were taken at regular intervals for colony counting. Cells treated with PBS and CRO were used as the negative control and positive control.

[11] = test system: intracellular S. hyicus NCTC 10350 in Hacat cells; assay type: cell-based; conditions: 24 h treatment, mean, n = 3; for Killing rate of intracellular S. hyicus: 1000× MIC
Description: Hacat cells (2.5 × 10^5 cells/mL) were dispensed into a 12-well plate for 24 h. Besides, the mid-log phase S. hyicus NCTC 10350 (2.5 × 10^7 CFU/mL) were coincubated with Hacat cells for 0.5 h. Then, lysostaphin was supplemented to kill extracellular bacteria. Hereafter, cells were treated with peptides or CRO for 24 h and lysed with lysis buffer. The intracellular bacteria were processed for colony counting.

[12] = test system: S. hyicus NCTC 10350; assay: Thermal stability, inhibition zone assay; assay type: physicochemical; conditions: 1 h, 64 μg/mL, inhibition zone against S. hyicus NCTC 10350, triplicate
Description: (§3) The stability of NZL or NZ2114 against S. hyicus NCTC 10350 was conducted by inhibition zone assays. To evaluate the thermal stability, 64 μg/mL NZL or NZ2114 was incubated at different temperatures (20 °C, 40 °C, 60 °C, 80 °C, and 100 °C) for 1 h. Besides, aliquots of NZL or NZ2114 were dissolved in different pH buffers in a range from 2.0 to 10.0 at 37 °C for 3 h to analyze the pH stability. NZL or NZ2114 was mixed with pepsin or trypsin solutions at a ratio of 10:1 (w/w) to determine the protease stability. The untreated peptides and buffers alone were used as positive controls and negative controls, respectively. All assays were conducted in triplicate.

[13] = test system: Hacat cells; assay: Cytotoxicity, MTT assay; assay type: cell-based; conditions: within 256 μg/mL (1–256 μg/mL), n = 3
Description: The cytotoxicity of peptides toward Hacat cells was determined by the 3-(4,5-dimethylthiazol-2-yl)-2,5-diphenyltetrazolium bromide (MTT) assay according to a previous study.

[14] = test system: S. hyicus NCTC 10350; assay: Mouse peritonitis model, organ injury by light microscope; assay type: in vivo; conditions: 10 mg/kg, organs harvested at 5 d
Description: as §1

[15] = test system: mouse erythrocytes; assay: Hemolysis; assay type: cell-based; conditions: at 256 μg/mL; 8% (v/v) mouse erythrocytes in 0.9% NaCl, 37 °C, 1 h, 540 nm; n = 3
Description: The hemolytic activity of peptides against fresh mouse erythrocytes was evaluated as described previously. In brief, 8% (v/v) erythrocyte solution in 0.9% NaCl was mixed with peptide solution (1–256 μg/mL) in an equal volume; then the mixtures were incubated at 37 °C for 1 h, centrifuged at 5000 rpm for 5 min and measured at 540 nm on a microplate reader. The absorbance of 0.9% NaCl (A0) and 0.1% Triton X-100 (A100) was used as controls. The hemolysis percentages of peptide were calculated by the following equation: Hemolysis (%) = [(A − A0)/(A100 − A0)] × 100.

[16] = test system: S. hyicus NCTC 10350; assay: pH stability, inhibition zone assay; assay type: physicochemical; conditions: 3 h, triplicate
Description: as §3

[17] = microbroth dilution, read-out: MIC

Structure (SMILES): CO/N=C(\C(=O)N[C@@H]1C(=O)N2C(C(=O)O)=C(CSc3nc(=O)c(=O)[nH]n3C)CS[C@H]12)c1csc(N)n1 [CRO, ceftriaxone, reference compound]
- Survival rate ([1]; 30 mg/kg and 60 mg/kg i.p. at 2 h and 8 h post-infection, compared with NZL 5 mg/kg and 10 mg/kg): identical survival rates with NZL
- Serum level of IL-6 ([2]; 60 mg/kg, 2 h after treatment): 981.56 pg/mL
- Serum level of IL-6 ([2]; 60 mg/kg, 24 h after treatment): 85.74 pg/mL
- Serum level of TNF-α ([3]; 60 mg/kg, 2 h after treatment): 233.16 pg/mL
- Serum level of TNF-α ([3]; 60 mg/kg, 24 h after treatment): 3.43 pg/mL
- Serum level of IL-1β ([4]; 60 mg/kg, 2 h after treatment): 94.75 pg/mL
- Serum level of IL-1β ([4]; 60 mg/kg, 24 h after treatment): 11.60 pg/mL
- Bacterial counts in blood ([5]; 60 mg/kg): 1.02 Log10 CFU/0.1 g
- Bacterial counts in kidneys ([5]; 60 mg/kg): 4.69 Log10 CFU/0.1 g
- Bacterial counts in livers ([5]; 60 mg/kg): 4.35 Log10 CFU/0.1 g
- Bacterial counts in lungs ([5]; 60 mg/kg): 5.21 Log10 CFU/0.1 g
- Bacterial counts in spleens ([5]; 60 mg/kg): 5.19 Log10 CFU/0.1 g
- MIC ([6]; Staphylococcus hyicus, ACCC61734): 4 µg/mL and 6.04 µM
- MIC ([7]; Staphylococcus aureus, ATCC25923, microbroth dilution, read-out: MIC): 4 µg/mL and 6.04 µM
- MIC ([8]; Staphylococcus aureus, ATCC43300, S. aureus ATCC 43300, microbroth dilution, MHB, 37 °C, 16–20 h, triplicate): 12.1 µM
- MIC ([8]; Staphylococcus aureus, ATCC43300): 8 µg/mL
- MIC ([9]; Staphylococcus hyicus, NCTC10350, microbroth dilution, read-out: MIC): 8 µg/mL and 12.1 µM
- Bacterial count at regrowth ([10]; 2× MIC, at 24 h): 5.65 Log10 CFU/mL
- Decrease of intracellular S. hyicus ([11]; 1× MIC, colony counting): 88.53%
- Decrease of intracellular S. hyicus ([11]; 5× MIC): 89.25%
- Decrease of intracellular S. hyicus ([11]; 10× MIC): 83.87%
- Killing rate of intracellular S. hyicus [11]: 97.6%

Structure (SMILES): CC[C@H](C)[C@@H]1NC(=O)[C@H](CO)NC(=O)[C@H](CCCCN)NC(=O)[C@@H]2CSSC[C@@H](C(=O)N[C@@H](Cc3ccc(O)cc3)C(=O)O)NC(=O)[C@H](CCCCN)NC(=O)[C@@H]3CSSC[C@H](NC(=O)[C@H](CCC(N)=O)NC(=O)[C@H]([C@@H](C)CC)NC(=O)[C@H](CC(=O)O)NC(=O)[C@H](CC(=O)O)NC(=O)[C@H](CCC(=O)O)NC(=O)[C@H](CO)NC(=O)[C@H](Cc4c[nH]c5ccccc45)NC(=O)[C@@H]4CCCN4C(=O)CNC(=O)[C@H](CC(N)=O)NC(=O)[C@@H](NC(=O)CNC(=O)[C@H](Cc4ccccc4)NC(=O)CN)CSSC[C@H](NC(=O)[C@H](Cc4ccc(O)cc4)NC(=O)CNC(=O)CNC(=O)[C@H](CCCCN)NC(=O)[C@H](Cc4ccc(O)cc4)NC(=O)CNC(=O)[C@H](CCCCN)NC1=O)C(=O)N[C@@H](C)C(=O)N[C@@H](CCCCN)C(=O)NCC(=O)NCC(=O)N[C@@H](Cc1ccccc1)C(=O)N[C@@H](C(C)C)C(=O)N3)C(=O)N[C@@H](Cc1c[nH]cn1)C(=O)N[C@@H](CC(N)=O)C(=O)N[C@@H](Cc1c[nH]cn1)C(=O)N2 [NZL] (H-GFGCNGPWSEDDIQCHNHCKSIKGYKGGYCAKGGFVCKCY-OH; disulfide 4-30, 15-37, 19-39; N-terminus and C-terminus assumed)
- Thermal stability ([12]; 20 to 80 °C): good thermal stability
- Activity after heating ([12]; 100 °C): no activity
- Minimum cell viability [13]: 60.28%
- Organ injury (livers, spleens, lungs, kidneys) [14]: apparently less damaged
- Survival rate ([1]; 5 mg/kg i.p. at 2 h and 8 h post-infection, ICR mice, S. hyicus NCTC 10350 10^9 CFU i.p., 6 mice/group): 50%
- Survival rate ([1]; 10 mg/kg i.p. at 2 h and 8 h post-infection, ICR mice, S. hyicus NCTC 10350 10^9 CFU i.p., 6 mice/group): 83.3%
- Maximum hemolysis [15]: 1.11%
- pH stability ([16]; pH 2 to 10, 37 °C, inhibition zone against S. hyicus NCTC 10350): retained strong stable activity
- Activity in the acidic environment ([16]; pH 4, 37 °C, inhibition zone against S. hyicus NCTC 10350, relative to untreated peptide): 94%
- Serum level of IL-6 ([2]; 10 mg/kg, 2 h after treatment): 1029.28 pg/mL
- Serum level of IL-6 ([2]; 10 mg/kg, 24 h after treatment): 44.92 pg/mL
- Serum level of TNF-α ([3]; 10 mg/kg, 2 h after treatment): 184.14 pg/mL
- Serum level of TNF-α ([3]; 10 mg/kg, 24 h after treatment): 5.75 pg/mL
- Serum level of IL-1β ([4]; 10 mg/kg, 2 h after treatment): 74.00 pg/mL
- Serum level of IL-1β ([4]; 10 mg/kg, 24 h after treatment): 24.02 pg/mL
- Bacterial counts in blood ([5]; 10 mg/kg): 0.16 Log10 CFU/0.1 g
- Bacterial counts in kidneys ([5]; 10 mg/kg): 0.25 Log10 CFU/0.1 g
- Bacterial counts in livers ([5]; 10 mg/kg): 0.34 Log10 CFU/0.1 g
- Bacterial counts in lungs ([5]; 10 mg/kg): 0.62 Log10 CFU/0.1 g
- Bacterial counts in spleens ([5]; 10 mg/kg): 0.58 Log10 CFU/0.1 g
- MIC [6]: 0.23 µM (≈ 1 µg/mL)
- Change of MIC against S. hyicus ACCC 61734 compared with NZ2114 ([6]; clinical strain, NZL vs NZ2114): four-fold
- MIC ([7]; microbroth dilution): 4 µg/mL
- MIC [7, 17]: 0.92 µM
- MIC ([8]; S. aureus ATCC 43300, microbroth dilution, MHB, 37 °C, 16–20 h, triplicate): 0.46 µM
- MIC ([9]; microbroth dilution): 4 µg/mL
- MIC [9, 17]: 0.92 µM
- Reduction of bacterial counts ([10]; 1× MIC, MHB): 7.37 Log10 CFU/mL
- Time within which S. hyicus NCTC 10350 cells were killed completely ([10]; 2× and 4× MIC, 1 × 10^5 CFU/mL in MHB, colony counting): ≤ 8 h
- Decrease of intracellular S. hyicus ([11]; 10× MIC): 84.95%
- Killing rate of intracellular S. hyicus [11]: 99.96%
